In US20200317660A1, “Quinazolinone Compound and Application Thereof” (LUOXIN PHARMACEUTICAL (SHANGHAI) CO., LTD., priority 2017, published 2020):
Like-named read-outs stand apart in the source and are kept apart here.

Tests used:
PI3Kα = target: T1, PI3Kα (Homo sapiens, UniProt P42336); assay: In vitro test of enzyme activity (ADP-Glo lipokinase), PI3K alpha; format: biochemical; conditions: 40 μM ATP, 50 μM PIP2:3PS, 120 min
T1 construct: purchased Millipore 14-602-K

PI3Kβ = target: T2, PI3Kβ (Homo sapiens, UniProt P42338); assay: In vitro test of enzyme activity (ADP-Glo lipokinase), PI3K beta; format: biochemical; conditions: 40 μM ATP, 50 μM PIP2:3PS, 120 min
T2 construct: purchased Promega V1751
T2 sequence (P42338 whole entry): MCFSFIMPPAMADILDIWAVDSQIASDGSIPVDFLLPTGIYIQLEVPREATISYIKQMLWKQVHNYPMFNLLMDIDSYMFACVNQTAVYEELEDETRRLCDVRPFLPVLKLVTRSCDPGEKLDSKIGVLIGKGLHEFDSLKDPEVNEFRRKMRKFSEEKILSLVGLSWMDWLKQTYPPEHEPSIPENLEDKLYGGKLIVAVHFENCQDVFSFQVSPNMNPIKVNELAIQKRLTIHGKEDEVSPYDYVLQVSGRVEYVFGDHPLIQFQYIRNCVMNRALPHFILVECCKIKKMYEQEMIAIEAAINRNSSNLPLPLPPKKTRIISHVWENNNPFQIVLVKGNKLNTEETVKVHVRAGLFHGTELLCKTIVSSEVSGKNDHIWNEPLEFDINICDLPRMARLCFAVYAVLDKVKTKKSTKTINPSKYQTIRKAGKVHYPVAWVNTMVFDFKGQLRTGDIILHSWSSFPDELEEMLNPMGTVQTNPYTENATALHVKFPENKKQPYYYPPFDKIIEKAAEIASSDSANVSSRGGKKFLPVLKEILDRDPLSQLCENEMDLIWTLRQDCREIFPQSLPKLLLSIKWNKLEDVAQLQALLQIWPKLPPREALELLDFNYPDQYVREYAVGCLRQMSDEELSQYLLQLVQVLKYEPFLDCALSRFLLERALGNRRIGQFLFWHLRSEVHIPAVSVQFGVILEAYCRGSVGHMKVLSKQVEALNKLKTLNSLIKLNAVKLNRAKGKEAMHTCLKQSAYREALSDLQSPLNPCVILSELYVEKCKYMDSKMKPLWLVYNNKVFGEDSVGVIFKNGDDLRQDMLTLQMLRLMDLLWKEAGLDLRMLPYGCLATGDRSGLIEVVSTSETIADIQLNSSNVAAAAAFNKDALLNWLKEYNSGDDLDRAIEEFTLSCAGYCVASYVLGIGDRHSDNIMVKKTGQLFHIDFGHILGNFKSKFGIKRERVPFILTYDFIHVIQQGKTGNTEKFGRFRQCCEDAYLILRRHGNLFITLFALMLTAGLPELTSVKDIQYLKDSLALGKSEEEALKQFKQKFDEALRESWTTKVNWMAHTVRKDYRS
T2 sequence (P27986 whole entry partner): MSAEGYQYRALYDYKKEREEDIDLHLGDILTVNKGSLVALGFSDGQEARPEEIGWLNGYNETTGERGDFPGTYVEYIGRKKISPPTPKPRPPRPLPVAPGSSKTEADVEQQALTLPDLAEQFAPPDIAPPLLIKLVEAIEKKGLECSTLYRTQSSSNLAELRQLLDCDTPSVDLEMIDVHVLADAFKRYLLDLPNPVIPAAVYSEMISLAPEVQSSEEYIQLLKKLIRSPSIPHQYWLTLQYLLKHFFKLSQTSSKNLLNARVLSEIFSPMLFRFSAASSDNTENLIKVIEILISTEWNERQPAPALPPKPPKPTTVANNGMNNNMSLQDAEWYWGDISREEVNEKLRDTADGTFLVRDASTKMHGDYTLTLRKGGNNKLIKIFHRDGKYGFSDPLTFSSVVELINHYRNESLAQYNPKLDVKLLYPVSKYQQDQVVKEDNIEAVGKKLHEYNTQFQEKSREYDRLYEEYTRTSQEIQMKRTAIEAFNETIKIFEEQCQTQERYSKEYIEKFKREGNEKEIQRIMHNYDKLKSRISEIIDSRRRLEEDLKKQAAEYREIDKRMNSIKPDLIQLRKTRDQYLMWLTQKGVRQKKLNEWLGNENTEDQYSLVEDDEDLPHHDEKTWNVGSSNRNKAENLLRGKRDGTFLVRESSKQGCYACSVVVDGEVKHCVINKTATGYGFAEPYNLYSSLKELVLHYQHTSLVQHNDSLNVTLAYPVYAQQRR

PI3Kδ = target: T3, PI3Kδ (Homo sapiens, UniProt O00329); assay: In vitro test of enzyme activity (ADP-Glo lipokinase), PI3K delta; format: biochemical; conditions: 40 μM ATP, 50 μM PIP2:3PS, 120 min
T3 construct: purchased Millipore 14-604-K
T3 sequence (O00329 whole entry): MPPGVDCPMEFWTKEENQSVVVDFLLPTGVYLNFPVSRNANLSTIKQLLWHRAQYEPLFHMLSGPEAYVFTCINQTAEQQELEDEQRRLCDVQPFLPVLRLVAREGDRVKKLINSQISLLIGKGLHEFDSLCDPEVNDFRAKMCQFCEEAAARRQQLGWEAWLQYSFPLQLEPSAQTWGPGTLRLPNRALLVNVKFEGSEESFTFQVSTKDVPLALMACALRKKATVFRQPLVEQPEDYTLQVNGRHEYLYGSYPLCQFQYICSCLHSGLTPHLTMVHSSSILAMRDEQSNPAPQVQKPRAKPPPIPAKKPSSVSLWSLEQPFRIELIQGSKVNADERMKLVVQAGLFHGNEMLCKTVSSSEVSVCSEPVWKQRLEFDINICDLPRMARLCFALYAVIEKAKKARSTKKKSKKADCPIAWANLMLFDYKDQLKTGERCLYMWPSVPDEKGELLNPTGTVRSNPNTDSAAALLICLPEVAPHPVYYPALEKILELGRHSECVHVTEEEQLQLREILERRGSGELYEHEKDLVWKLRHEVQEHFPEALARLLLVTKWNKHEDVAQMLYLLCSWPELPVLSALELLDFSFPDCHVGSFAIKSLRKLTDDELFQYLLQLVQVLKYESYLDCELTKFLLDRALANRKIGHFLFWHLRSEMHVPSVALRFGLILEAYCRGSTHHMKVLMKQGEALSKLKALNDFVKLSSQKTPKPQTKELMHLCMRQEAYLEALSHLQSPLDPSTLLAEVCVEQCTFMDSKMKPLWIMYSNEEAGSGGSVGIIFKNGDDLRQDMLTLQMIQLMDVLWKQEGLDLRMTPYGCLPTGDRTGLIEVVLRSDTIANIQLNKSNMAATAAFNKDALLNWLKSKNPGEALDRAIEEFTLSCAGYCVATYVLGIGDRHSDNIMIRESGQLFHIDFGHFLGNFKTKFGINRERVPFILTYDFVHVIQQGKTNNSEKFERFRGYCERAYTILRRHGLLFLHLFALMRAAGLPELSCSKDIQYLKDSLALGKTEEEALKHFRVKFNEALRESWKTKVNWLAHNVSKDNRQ
T3 sequence (P27986 whole entry partner): as the sequence (P27986 whole entry partner) above

PI3Kγ = target: T4, PI3Kγ (Homo sapiens, UniProt P48736); assay: In vitro test of enzyme activity (ADP-Glo lipokinase), PI3K gamma; format: biochemical; conditions: 25 μM ATP, 50 μM PIP2:3PS, 120 min
T4 construct: purchased Millipore 14-558-K
T4 sequence (P48736 whole entry): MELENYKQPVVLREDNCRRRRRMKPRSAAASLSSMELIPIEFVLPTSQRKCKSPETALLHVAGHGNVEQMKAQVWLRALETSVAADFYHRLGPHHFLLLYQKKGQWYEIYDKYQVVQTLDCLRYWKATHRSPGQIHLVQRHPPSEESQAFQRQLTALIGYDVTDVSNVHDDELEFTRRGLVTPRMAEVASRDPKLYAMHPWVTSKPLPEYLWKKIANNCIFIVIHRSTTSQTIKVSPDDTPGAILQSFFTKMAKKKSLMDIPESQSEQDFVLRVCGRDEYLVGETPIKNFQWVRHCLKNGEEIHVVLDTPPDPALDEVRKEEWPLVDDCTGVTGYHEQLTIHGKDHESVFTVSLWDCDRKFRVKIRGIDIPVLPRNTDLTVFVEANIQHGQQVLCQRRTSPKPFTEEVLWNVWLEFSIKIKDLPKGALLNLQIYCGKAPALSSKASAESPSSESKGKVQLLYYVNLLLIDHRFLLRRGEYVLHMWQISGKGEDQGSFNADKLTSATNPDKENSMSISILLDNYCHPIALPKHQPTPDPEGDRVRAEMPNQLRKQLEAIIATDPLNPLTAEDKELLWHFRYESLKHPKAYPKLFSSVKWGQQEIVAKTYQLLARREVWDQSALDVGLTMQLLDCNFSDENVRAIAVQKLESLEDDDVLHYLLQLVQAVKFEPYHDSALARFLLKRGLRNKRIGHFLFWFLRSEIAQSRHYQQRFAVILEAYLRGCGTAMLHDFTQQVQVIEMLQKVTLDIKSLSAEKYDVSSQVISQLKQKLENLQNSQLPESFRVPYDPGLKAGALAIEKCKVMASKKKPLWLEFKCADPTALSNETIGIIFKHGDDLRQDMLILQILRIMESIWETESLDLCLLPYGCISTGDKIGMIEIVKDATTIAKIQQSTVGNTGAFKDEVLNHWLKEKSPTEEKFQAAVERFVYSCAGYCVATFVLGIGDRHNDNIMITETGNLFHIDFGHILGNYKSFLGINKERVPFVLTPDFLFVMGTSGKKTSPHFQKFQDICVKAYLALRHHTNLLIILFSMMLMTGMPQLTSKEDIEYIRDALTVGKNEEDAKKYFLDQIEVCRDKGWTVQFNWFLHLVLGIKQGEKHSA

[1] = test system: phosphorylation of PI3K downstream protein Akt in MCF7 cells; assay: In vitro test of cells activity: ELISA of Akt phosphorylation in MCF7 cells; format: cell-based; conditions: 2 h compound, insulin 10 μg/mL stimulation, pAkt ELISA, read-out: MCF7 Cell IC50
Experimental: 2. In vitro test of cells activity
By the method of ELISA, the inhibition level of the test compound on the phosphorylation of PI3K downstream protein Akt in the signaling pathway was determined in MCF7 cells line to reflect the cells activity of the compound.
Cell culture medium: complete cell culture medium (RPMI 1640+10% serum+1% L-glutamine+1% double antibody)
Serum-free medium (without serum, RPMI 1640+1% L-glutamine+1% double antibody)
The detailed procedures areas follows:
(1) MCF7 cells (ATCC® HTB-22™) were inoculated into a 96-well plate at 100 μL of cell complete medium per well (2.5*10^4 cells per well), and the cells were incubated at 37° C. and 5% CO2 for 24 hours.
(2) The complete cell culture medium was replaced with 100 μL of serum-free medium, and incubated for starvation overnight.
(3) The compound was prepared (The initial concentration of the compound is 1 mM, which was subjected to a three-fold dilution in 10 concentrations, and the compound of each concentration was then diluted 100-fold with serum-free medium). 25 μL of the diluted compound was added to the cells orifice plate.
(4) The cells were incubated at 37° C. and 5% CO2 for 2 hours.
(5) The cells in the well plate were stimulated with 10 μg/mL insulin (Sigma # I9278-5 mL), incubated for 30 minutes, and then centrifuged at 1000 rpm for 5 minutes at room temperature.
(6) 250 μL of 1× balanced salt solution (Invitrogen, #14065-056, 4° C., containing 1 mM/L Na3VO4) was added to each well to wash the cells once.
(7) 100 μL of lysis buffer (trimethylolaminomethane hydrochloride, Invitrogen, #15567-1000 ml) was added to each well, shaken at 4° C. for 60 minutes, and then centrifuged at 4000 rpm for 4 minutes.
(8) The following procedures were carried out according to the instructions of ELISA kit (TGR BioSciences # EKT002).

[2] = test system: human breast cancer BT-474 cells; assay: Subcutaneous xenograft tumor model of human breast cancer BT-474 cells; format: in vivo, BALB/c nude mouse; conditions: BT-474 xenograft, 30 mpk
Experimental: 2. In vivo drug-efficacy study
(1) BALB/c nude mouse subcutaneous xenograft tumor model of human breast cancer BT-474 cells
Human breast cancer BT-474 cells (ATCC, Manassas, Va., batch number: HTB-20) were subjected to in vitro monolayer culture, and the culture conditions were: Hybri-Care medium with 10% fetal bovine serum and 1% double antibody, 37° C. and 5% CO2 incubator. The cells were passaged by digestion with trypsin-EDTA twice a week. When the cells saturation reached 80-90%, and the quantity met the requirement, the cells was collected, counted and inoculated.
Tumor cell inoculation (tumor inoculation)
The subcutaneous implantation of the estrogen tablets (Innovative Research, Cat # SE-121, 0.36 mg/60-day release) was carried out one day before cell inoculation. 0.2 mL […] of BT-474 cells (with matrigel, volume 1:1) was subcutaneously inoculated into the right back of each mouse. When the average tumor volume reached 188 mm^3, the administration was started in groups.
Preparation of Test Substance […]
The experimental index was to evaluate whether the tumor growth was inhibited, delayed or cured. The diameter of the tumor was measured with a vernier caliper twice a week. […]
The antitumor efficacy of the compound was evaluated by TGI (%) or relative tumor proliferation rate T/C (%). […]

[3] = In vivo DMPK study in mice after a single administration; set-up: species or system female Balb/c mice; conditions: oral, 10 mpk
Experimental: Experimental objective: female Balb/c mice were used as the test animals, and the blood concentration of the compound was determined and the pharmacokinetic behavior was evaluated after a single administration.
Experimental operation: 12 healthy adult female Balb/c mice were selected, 6 for intravenous injection group and 6 for oral administration group. The compound to be tested was mixed with an appropriate amount of intravenous injection group vehicle (10% HP-betaCD: 10% solutol=1:1, pH=8), vortex-mixed and sonicated to prepare a 1.0 mg/mL clear solution, followed by filtration for subsequent use; the vehicle in the oral group was 0.5% MC/0.2% Tw80. After the test compound and the vehicle were mixed, it was vortex-mixed and sonicated to prepare a 1.0 mg/mL homogeneous suspension for subsequent use. After an intravenous administration at a dose of 1 mg/kg or an oral administration at the dose of 2 mg/kg and 10 mg/kg, whole blood of the mice was collected for a certain period of time to prepare plasma. The drug concentration was analyzed by LC-MS/MS method, and Phoenix WinNonlin software was used (Pharsight, USA) to calculate the pharmacokinetic parameters.
Cmax: the highest concentration of the drug in the body; F %: oral bioavailability; Oral DNAUC: area under the dose normalization curve; Vd: apparent volume of distribution; Cl: clearance rate; T1/2: half-life.

PI3K = conditions: literature statement; cited from earlier work

T1 sequence (P42336 whole entry): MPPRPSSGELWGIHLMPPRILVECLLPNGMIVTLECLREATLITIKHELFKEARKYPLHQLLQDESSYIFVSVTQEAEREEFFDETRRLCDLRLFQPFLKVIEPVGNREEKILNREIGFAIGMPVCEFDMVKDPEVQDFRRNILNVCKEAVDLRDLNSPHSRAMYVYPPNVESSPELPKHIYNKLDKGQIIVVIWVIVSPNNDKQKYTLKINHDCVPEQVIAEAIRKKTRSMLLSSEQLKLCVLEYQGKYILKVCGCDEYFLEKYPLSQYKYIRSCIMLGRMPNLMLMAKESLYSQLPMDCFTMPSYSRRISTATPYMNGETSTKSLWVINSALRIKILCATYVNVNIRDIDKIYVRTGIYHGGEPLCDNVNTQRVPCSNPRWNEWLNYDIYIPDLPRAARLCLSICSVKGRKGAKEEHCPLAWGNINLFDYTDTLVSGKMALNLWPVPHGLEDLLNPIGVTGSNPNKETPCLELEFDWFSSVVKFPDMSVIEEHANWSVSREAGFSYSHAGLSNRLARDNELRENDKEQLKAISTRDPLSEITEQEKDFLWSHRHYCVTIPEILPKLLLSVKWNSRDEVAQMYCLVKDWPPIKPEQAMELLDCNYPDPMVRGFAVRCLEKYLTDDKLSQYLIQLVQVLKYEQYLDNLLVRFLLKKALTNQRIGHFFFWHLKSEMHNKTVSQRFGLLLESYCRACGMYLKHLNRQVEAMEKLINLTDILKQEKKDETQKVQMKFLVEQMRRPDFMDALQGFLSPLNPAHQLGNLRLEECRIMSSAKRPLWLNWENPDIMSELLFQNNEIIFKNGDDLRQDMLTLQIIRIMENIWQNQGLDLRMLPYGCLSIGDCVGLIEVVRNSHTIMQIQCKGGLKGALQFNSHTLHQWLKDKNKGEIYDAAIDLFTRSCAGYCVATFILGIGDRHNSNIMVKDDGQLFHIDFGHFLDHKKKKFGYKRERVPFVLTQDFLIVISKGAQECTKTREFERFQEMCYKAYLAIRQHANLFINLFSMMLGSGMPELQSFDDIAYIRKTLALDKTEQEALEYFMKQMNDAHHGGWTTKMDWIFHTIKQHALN
T1 sequence (P27986 whole entry partner): as the sequence (P27986 whole entry partner) above

Molecule `COc1ncc(-c2ccc3ncn(CC(C)C(=O)NCC(F)(F)F)c(=O)c3c2)cc1NS(=O)(=O)c1ccc(F)cc1Cl` (single isomer, unassigned) [WX058] has an IC50 (PI3Kα) of 5.49 nM, an IC50 (PI3Kβ) of 589 nM and an IC50 (PI3Kδ) of 18.7 nM. For the same molecule, the IC50 (PI3Kγ) was 54.2 nM, the IC50 [1] was 56.1 nM and the TGI % [2] was 60.0%.

Work on `CNC(=O)C(C)Cn1cnc2ccc(-c3cnc(OC)c(NS(=O)(=O)c4cc(Cl)ccc4Cl)c3)cc2c1=O` (single isomer, unassigned) [WX183] yielded an IC50 (PI3Kα) of 0.95 nM, an IC50 (PI3Kβ) of 166 nM and an IC50 (PI3Kδ) of 6.34 nM. For the same molecule, the IC50 (PI3Kγ) was 8.21 nM, the IC50 [1] was 51.4 nM and the Cmax [3] was 25.9 µM. For the same molecule, the “Oral DNAUC (area under the dose normalization curve)” value [3] was 4867 nM · h/mpk.

Molecule `CNC(=O)C(C)Cn1cnc2ccc(-c3cnc(OC)c(NS(=O)(=O)c4cc(C)ccc4Cl)c3)cc2c1=O` (single isomer, unassigned) [WX214] has an IC50 (PI3Kα) of 2.22 nM, an IC50 (PI3Kβ) of 278 nM and an IC50 (PI3Kδ) of 18.8 nM. The IC50 (PI3Kγ) was 31.4 nM, the IC50 [1] was 17.2 nM and the Cmax [3] was 8.41 µM. The “Oral DNAUC (area under the dose normalization curve)” value [3] was 734 nM · h/mpk.

Molecule `CNC(=O)C(C)Cn1cnc2ccc(-c3cnc(OC)c(NS(=O)(=O)c4cc(Cl)ccc4C)c3)cc2c1=O` (single isomer, unassigned) [WX222] has an IC50 (PI3Kα) of 1.8 nM, an IC50 (PI3Kβ) of 361 nM and an IC50 (PI3Kδ) of 20.7 nM. For the same molecule, the IC50 (PI3Kγ) was 29.7 nM, the IC50 [1] was 12.6 nM and the Cmax [3] was 6.88 µM. For the same molecule, the “Oral DNAUC (area under the dose normalization curve)” value [3] was 1300 nM · h/mpk.

With `COc1ncc(-c2ccc3ncn(CCN(C)C)c(=O)c3c2)cc1NS(=O)(=O)c1ccc(F)cc1` [R011, reference compound] the IC50 (PI3Kα) was 74.5 nM, the IC50 (PI3Kβ) was 168 nM and the IC50 ([1]; Homo sapiens, MCF7, 2 h) was 230 nM. The “inhibitory effect on PI3K” value (PI3K) was “good inhibitory effect”.

For `CCN(CC)CCn1cnc2ccc(-c3cnc(OC)c(NS(=O)(=O)c4ccc(F)cc4F)c3)cc2c1=O` [R012, reference compound], the IC50 (PI3Kα) was 13.9 nM, the IC50 (PI3Kβ) was 67.9 nM and the IC50 ([1]; Homo sapiens, MCF7, 2 h) was > 1000 nM. For the same molecule, the “inhibitory effect on PI3K” value (PI3K) was “good inhibitory effect”.
